Assay [1] has as its target T1, ThrC (threonine synthase; ThrC-His6) (Microcystis aeruginosa, UniProt A0AB33BYK2).
T1 construct: gene BH695_2536; full-length thrC (1,304 bp), N-terminal His6 tag from pET-28b(+), E. coli BL21(DE3), Ni-NTA purified; tag cleavage not mentioned
Kind of assay: yellow colour of purified enzyme; PLP-dependent threonine deamination spectra. It is filed as binding. The note with it: threonine as substrate; 50 mM PIPES pH 8.0.

For assay [2], the target named is T1, ThrC (threonine synthase; ThrC-His6). Description: in vitro threonine deaminase assay, inhibition. In kind it is biochemical. Conditions: threonine as substrate; concentration-dependent inhibition.
For assay [3] the target is unchanged. Description: alpha-ketobutyrate formation (semicarbazide / […],4-DNPH), threonine deaminase activity, sigmoidal fit. It is filed as biochemical. Conditions: 50 mM PIPES pH 8.0, 100 mM KCl, 0.1 mM EDTA, 1 mM DTT, PLP, 25 °C; sigmoidal kinetics.

T1 sequence (A0AB33BYK2 entry or part of it): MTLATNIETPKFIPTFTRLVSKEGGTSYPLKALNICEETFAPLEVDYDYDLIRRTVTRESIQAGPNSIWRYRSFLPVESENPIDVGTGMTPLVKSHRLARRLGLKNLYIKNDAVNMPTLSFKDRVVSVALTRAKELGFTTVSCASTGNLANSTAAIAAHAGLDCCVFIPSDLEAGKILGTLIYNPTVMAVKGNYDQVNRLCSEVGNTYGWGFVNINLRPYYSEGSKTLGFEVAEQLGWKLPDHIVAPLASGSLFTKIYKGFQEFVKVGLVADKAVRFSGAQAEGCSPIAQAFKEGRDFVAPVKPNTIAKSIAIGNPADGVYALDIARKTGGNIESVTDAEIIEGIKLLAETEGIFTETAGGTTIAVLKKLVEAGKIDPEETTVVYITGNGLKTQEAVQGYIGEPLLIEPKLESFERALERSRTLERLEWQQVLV

For the compound `Cc1ncc(COP(=O)(O)O)c(C=O)c1O` [PLP], the “yellow colour of purified enzyme; PLP-dependent threonine deamination spectra” value in assay [1] is “threonine synthase could utilize PLP as a catalyst to degrade threonine into keto acids”.

As to `C[C@H](N)C(=O)O` [alanine], in assay [2], the inhibition result is “alanine and isoleucine, also exhibited concentration-dependent inhibitory activity against aKB-generating deaminases”.

Take `CC[C@H](C)[C@H](N)C(=O)O` [isoleucine]: the inhibition entry in assay [2] was “alanine and isoleucine, also exhibited concentration-dependent inhibitory activity against aKB-generating deaminases”.

`C[C@@H](O)[C@H](N)C(=O)O` [threonine]: the K0.5 entry in assay [3] was “The sigmoidal kinetics of ThrC as a threonine deaminase were analyzed in the presence of threonine”.

Source of the values: PMC12172450, “Moonlighting activity of threonine synthase in cyanobacterial cell death” (mSystems, 2025).
